Assay in all cases: inhibition of tumour cell growth, NCI panel, 48 h
For test [1], the system named is MCF7 breast.
Test [2] relates to SK-MEL-2 melanoma.
Test [3] has as its system HOP-62 NSCLC.
Test [4] concerns NCI/ADR-RES ovarian.
For test [5], the system named is HT29 colon.
Test [6] has as its system HCT-116 colon.
Test [7] deals with SF-268 CNS.
Test [8] relates to A498 renal.
Test [9] deals with UACC-257 melanoma.
Test [10] has as its system SNB-19 CNS.

Molecules are shown by their SMILES.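 Briefly, cells in 96-well plates were exposed to five compound concentrations for 48 h, and endpoints were estimated by linear interpolation. At the GI50, growth is halved. The concentration for full growth arrest is given as TGI.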

As to `COc1ccc2nc3cc(Cl)ccc3c(N3CCN(c4ccnc(N5CCOCC5)n4)CC3)c2c1`, the GI50 in test [1] is 1.89 µM; in [2], 53.3 µM; in test [3], 63.1 µM; in test [4], 50.8 µM; in test [5] it was 2.9 µM; in test [6], 6.29 µM. In addition, the GI50 in [7] is 9.74 µM; in [8], 27.8 µM; in test [9], greater than 100 µM; in [10] it was greater than 100 µM. For the same compound, the TGI was 4.9 µM in [1]; greater than 100 µM in [2]; greater than 100 µM in test [3]; greater than 100 µM in test [4]; 16.7 µM in test [5]; greater than 100 µM in [6]. The TGI in test [7], in test [8], in test [9] and in [10] was greater than 100 µM throughout.

As to `O=C(CCCN1CCOCC1)Nc1ccc(Cn2nnc3c2C(=O)c2nnn(Cc4ccc(NC(=O)CCCN5CCOCC5)cc4)c2C3=O)cc1`, the GI50 in test [1] is 1.03 µM; in test [2], 2.04 µM; in test [3] it was greater than 100 µM; in test [4], greater than 100 µM; in [5], 3.31 µM; in test [6], 3 µM. The GI50 in test [7] is 3.21 µM; in [8], greater than 100 µM; in test [9], 1.7 µM; in [10] it was 1.84 µM. Further, the TGI in [1] was 2.77 µM; in [2], 4.15 µM; in test [3], greater than 100 µM; in test [4], greater than 100 µM; in test [5], 8.9 µM; in [6], 11.3 µM. Moreover, the TGI in [7] is 12.1 µM; in test [8], greater than 100 µM; in test [9], 3.23 µM; in test [10] it was 3.59 µM.

As to `CCN1C(NN)=NS(=O)(=O)c2ccccc21`, the TGI in test [1], in test [2], in test [3], in test [4], in test [5] and in test [6] was greater than 100 µM in each case. Further, the TGI in [7], in [8], in test [9] and in test [10] was greater than 100 µM in each case.

Regarding `O=C(CF)N(O)c1ccc(/C=C/c2ccccc2)cc1`, the GI50 in [1] was 0.304 µM; in [2] it was 27.1 µM; in test [3] it was 5.91 µM; in [4], 2.52 µM; in test [5], 3.52 µM; in test [6], 0.805 µM. For the same compound, the GI50 was 2.78 µM in test [7], 0.694 µM in test [8], 1.67 µM in test [9] and 8.65 µM in test [10]. In addition, the TGI was greater than 100 µM in test [1]; greater than 100 µM in test [2]; 32.2 µM in [3]; greater than 100 µM in test [4]; greater than 100 µM in test [5]; 6.63 µM in test [6]. Also, the TGI in [7] was greater than 100 µM; in [8], 2.27 µM; in test [9], 5.59 µM; in test [10] it was greater than 100 µM.

On to `O=P(NC12CC3CC(CC(C3)C1)C2)(N1CC1)N1CC1`, for which the TGI in [1], in [2], in test [3], in [4], in test [5] and in test [6] was greater than 100 µM throughout. For the same compound, the TGI in test [7], in [8], in test [9] and in test [10] was greater than 100 µM each time.

Take `CC/C=C\C/C=C\C[C@H](O)C/C=C1/C(=O)C=C[C@@H]1C/C=C\CCCC(=O)O`: the GI50 in [1] was 2.96 µM; in [2], 3.33 µM; in [3], 2.77 µM; in [4], 3.24 µM; in test [5], 3.78 µM; in test [6] it was 2.08 µM. Besides, the GI50 in [7] was 5.2 µM; in [8], 16 µM; in [9] it was 5.35 µM; in test [10] it was 8.75 µM. The TGI was 18.5 µM in test [1]; 13.2 µM in test [2]; 7.4 µM in test [3]; greater than 100 µM in test [4]; 11.4 µM in [5]; 4.5 µM in [6]. Also, the TGI was found to be 34 µM in [7], 31.1 µM in test [8], 19.2 µM in test [9] and 24.3 µM in test [10].

Take `CN(C)c1ccc(/C=C(\C#N)c2nc3ccccc3n2C)cc1`: the GI50 was 0.612 µM in [1]; 3.9 µM in test [2]; 13.8 µM in test [3]; 1.47 µM in [4]; 0.742 µM in test [5]; 1.41 µM in [6]. Also, the GI50 in test [7] was 5.96 µM; in test [8], 0.729 µM; in [9], 20.2 µM; in test [10], 7.27 µM. Besides, the TGI in test [1] was greater than 76 µM; in test [2] it was 68.5 µM; in test [3], greater than 100 µM; in test [4] it was 11.1 µM; in test [5] it was greater than 33.3 µM; in [6] it was greater than 100 µM. Besides, the TGI in [7] was greater than 95.1 µM; in test [8], 6.82 µM; in [9], greater than 100 µM; in test [10], greater than 100 µM.
